Assay results as given in EP0959987B1, “USE OF PERFLUOROALKYL SUBSTITUTED PHOSPHORUS COMPOUNDS AS LIGANDS FOR HOMOGENEOUS CATALYSIS IN SUPERCRITICAL CARBON DIOXIDE” (Studiengesellschaft Kohle mbH, priority 1997, dated 1998).

Key:
[1] = scCO2, T = 50 °C, p = 345 bar; cited from earlier work
[2] = Solubility of the complexes in scCO2 by UV spectroscopy (Lambert-Beer law, reference data for THF solutions); type: physicochemical
Protocol: Die Löslichkeit der Komplexe IXa,b in scCO2 wurde mittels UV-Spektroskopie bestimmt und mit der Löslichkeit der unsubstituierten Stammverbindung [(dppe)Rh(hfacac)] IXe verglichen. IXe ist selbst bei hoher Dichte ρ und damit hoher Lösungskraft des scCO2 (Angew. Chem. 1978, 90, 748) nicht löslich (T = 50 °C, […]). Mit IXa und IXb werden hingegen bereits bei niedrigen Dichten (T= 50 °C, ρ = 90 bar, ρ = 0.55 g cm^-3) gelb-orange Lösungen erhalten. Aus den Absorptionsmaxima der UV-Spektren (siehe Abb. 1) läßt sich über das Lambert-Beer'sche-Gesetz mittels Vergleichsdaten für THF-Lösungen eine Sättigungskonzentration von 6.3 x 10^-5 M für IXa und 7.5 x 10^-5 M für IXb ermitteln. Zum Vergleich ist in Abb. 1 auch das UV-Spektrum des Komplexes IXf mit der Alkylphosphorverbindung 1,2-Bis(dicyclohexylphosphino)ethan (dcpe) aufgeführt. Die Löslichkeit von IXf in scCO2 beträgt unter identischen Bedingungen 1.1 x 10^-5 M, ist also um 5x bzw. 7x geringer als die von IXa und IXb. [formula]

| Compound | maximale Löslichkeit [1] | Löslichkeit in scCO2 [2] |
| --- | --- | --- |
| [(Duphos)Rh(η^4-C8H12)]^+ | 30 µM |  |
| O=C([CH-]C(=O)C(F)(F)F)C(F)(F)F.[Rh+].c1ccc(P(CCP(c2ccccc2)c2ccccc2)c2ccccc2)cc1 [IXe, [(dppe)Rh(hfacac)], reference compound] |  | nicht löslich |
